Laboratory results: the supplement of paper PMC11061612

Legend:
Test in all cases: Bliss excess, mean over the matrix (fraction); higher = more synergy
[1] = system: AsPC-1 (Pancreatic Carcinoma)
How it was run: (§1)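 Bliss excess equals the observed combination effect minus the expected value EA + EB − EA·EB, where EA and EB are the effects of each agent alone. Combination Emax is the second-highest inhibition within the matrix. Inhibition was scaled from CellTiter-Glo 2.0 luminescence, with 0 set by vehicle wells and 1 by blank wells, after 72 hours of two-drug dosing of cells plated in 1536-well plates.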

[2] = system: BALL-1 (B-Lymphoblastic Leukemia)
How it was run: as §1

[3] = system: Becker (Low Grade Glioma)
How it was run: as §1

[4] = system: CHL-1 (Melanoma)
How it was run: as §1

[5] = system: COLO-684 (Endometrial Carcinoma)
How it was run: as §1

[6] = system: HSC-3 (Oral Cavity Carcinoma)
How it was run: as §1

[7] = system: KYM-1 (Rhabdomyosarcoma)
How it was run: as §1

[8] = system: KYSE-70 (Esophageal Squamous Cell Carcinoma)
How it was run: as §1

[9] = system: LOUCY (T-Lymphoblastic Leukemia)
How it was run: as §1

[10] = system: NCI-H1155 (Non-Small Cell Lung Carcinoma)
How it was run: as §1

[11] = system: NCI-H1623 (Lung Adenocarcinoma)
How it was run: as §1

[12] = system: NCI-H810 (Non-Small Cell Lung Carcinoma)
How it was run: as §1

[13] = system: NKM-1 (Acute Myeloid Leukemia)
How it was run: as §1

[14] = system: OCI-AML5 (Acute Myeloid Leukemia)
How it was run: as §1

[15] = system: OV-90 (Ovarian Carcinoma)
How it was run: as §1

[16] = system: PC-14 (Lung Adenocarcinoma)
How it was run: as §1

[17] = system: RERF-LC-KJ (Lung Adenocarcinoma)
How it was run: as §1

[18] = system: RL95-2 (Endometrial Carcinoma)
How it was run: as §1

[19] = system: RMG-I (Ovarian Carcinoma)
How it was run: as §1

[20] = system: SW684 (Other Solid Carcinomas)
How it was run: as §1

Compound | Bliss excess [1] | Bliss excess [2] | Bliss excess [3] | Bliss excess [4] | Bliss excess [5] | Bliss excess [6] | Bliss excess [7] | Bliss excess [8] | Bliss excess [9] | Bliss excess [10] | Bliss excess [11] | Bliss excess [12] | Bliss excess [13] | Bliss excess [14] | Bliss excess [15] | Bliss excess [16] | Bliss excess [17] | Bliss excess [18] | Bliss excess [19] | Bliss excess [20]
C[C@@H](c1ccc2nccn2c1)n1nnc2ncc(-c3cnn(C)c3)nc21 [Savolitinib] + Cc1c2c(nn1C)CSCc1cc(n(C)n1)CSc1cc(c3ccccc3c1)OCCCc1c(C(=O)O)n(C)c3c-2c(Cl)ccc13 [AZD5991] (first compound max 1 µM, 7x7, partner max 1 µM) | -0.118 | -0.052 | 0.0103 | -0.023 | -0.0158 | -0.018 | -0.0309 | -0.0339 | 0.0369 | -0.0188 | -0.0195 | -0.0517 | -0.0069 | -0.0178 | -0.0519 | -0.0134 | 0.012 | -0.0676 | -0.0327 | -0.0608
Cn1cnc2c(F)c(Nc3ccc(Br)cc3Cl)c(C(=O)NOCCO)cc21 [Selumetinib] + C=CCn1c(=O)c2cnc(Nc3ccc(N4CCN(C)CC4)cc3)nc2n1-c1cccc(C(C)(C)O)n1 [AZD1775] (first compound max 10 µM, partner max 1 µM) | -0.046 | 0.0018 | 0.0145 | -0.0386 | -0.0323 | -0.0355 | -0.0696 | -0.0339 | -0.196 | -0.0474 | -0.0223 | -0.0632 | -0.0478 | 0.036 | -0.0274 | -0.0475 | -0.0044 | 0.0148 | -0.0005 | -0.106
Cn1cnc2c(F)c(Nc3ccc(Br)cc3Cl)c(C(=O)NOCCO)cc21 [Selumetinib] + CC(C)n1c(=O)n(C)c2cnc3cc(F)c(-c4ccc(OCCCN5CCCCC5)nc4)cc3c21 [AZD1390] (first compound max 10 µM, 7x7, partner max 0.3 µM) | -0.0093 | -0.0156 | -0.007 | -0.0482 | -0.0257 | -0.0424 | -0.0207 | -0.0481 | -0.0166 | -0.0679 | 0.0076 | -0.0525 | -0.107 | -0.0198 | 0.0131 | -0.0015 | -0.0073 | -0.0663 | -0.0268 | -0.0616
Cn1cnc2c(F)c(Nc3ccc(Br)cc3Cl)c(C(=O)NOCCO)cc21 [Selumetinib] + CCN(CCO)CCCOc1ccc2c(Nc3cc(CC(=O)Nc4cccc(F)c4)[nH]n3)ncnc2c1 [AZD2811] (first compound max 10 µM, 7x7, partner max 1 µM) | 0.0032 | 0.0638 | -0.0119 | -0.0579 | -0.0211 | -0.0877 | -0.0102 | 0.0047 | -0.0979 | 0.0907 | 0.0134 | -0.037 | -0.0376 | -0.0225 | -0.0252 | 0.0372 | -0.003 | 0.045 | -0.0385 | -0.036
Cn1cnc2c(F)c(Nc3ccc(Br)cc3Cl)c(C(=O)NOCCO)cc21 [Selumetinib] + C[C@@H]1COCCN1C2=NC(=NC(=C2)C3(CC3)[S@](=N)(=O)C)C4=C5C=CNC5=NC=C4 [AZD6738] (first compound max 10 µM, 7x7, partner max 10 µM) | 0.0716 | -0.0066 | 0.0016 | -0.0498 | -0.0474 | 0.0049 | -0.033 | -0.0408 | -0.0446 | -0.0028 | 0.0028 | -0.0707 | -0.0748 | 0.0024 | 0.0049 | -0.0022 | 0.0075 | 0.0152 | 0.0106 | -0.071
CC(=O)Nc1cccc(-n2c(=O)n(C3CC3)c(=O)c3c(Nc4ccc(I)cc4F)n(C)c(=O)c(C)c32)c1 [Trametinib] + Cc1nc(-c2cn3c(n2)-c2ccc(-c4cnn(C(C)(C)C(N)=O)c4)cc2OCC3)n(C(C)C)n1 [Taselisib] (first compound max 1 µM, 7x7, partner max 10 µM) | 0.0654 | 0.142 | 0.121 | 0.171 | -0.0034 | 0.15 | 0.0424 | 0.182 | 0.0668 | 0.0426 | 0.144 | -0.052 | 0.255 | 0.194 | 0.0922 | 0.163 | 0.0564 | 0.0378 | -0.0099 | 0.161
CC1(C)CCC(CN2CCN(c3ccc(C(=O)NS(=O)(=O)c4ccc(NCC5CCOCC5)c([N+](=O)[O-])c4)c(Oc4cnc5[nH]ccc5c4)c3)CC2)=C(c2ccc(Cl)cc2)C1 [Venetoclax] + C1CN(CCC1(C(=O)N[C@@H](CCO)C2=CC=C(C=C2)Cl)N)C3=NC=NC4=C3C=CN4 [Capivasertib] (first compound max 1 µM, 7x7, partner max 3 µM) | -0.088 | 0.0213 | 0.0046 | -0.0266 | -0.0821 | -0.0501 | -0.0269 | -0.0102 | 0.104 | -0.0482 | -0.0643 | -0.0663 | 0.0228 | -0.0057 | -0.0796 | -0.038 | -0.0808 | -0.0102 | -0.0823 | -0.0688
CC1(C)CCC(CN2CCN(c3ccc(C(=O)NS(=O)(=O)c4ccc(NCC5CCOCC5)c([N+](=O)[O-])c4)c(Oc4cnc5[nH]ccc5c4)c3)CC2)=C(c2ccc(Cl)cc2)C1 [Venetoclax] + C=CCn1c(=O)c2cnc(Nc3ccc(N4CCN(C)CC4)cc3)nc2n1-c1cccc(C(C)(C)O)n1 [AZD1775] (first compound max 1 µM, partner max 1 µM) | -0.0879 | 0.0171 | 0.0593 | 0.0577 | -0.0644 | -0.0216 | 0.0082 | -0.0169 | 0.0193 | -0.0417 | -0.0218 | -0.0873 | -0.0087 | -0.0397 | -0.0168 | -0.0027 | -0.0394 | 0.0277 | -0.0409 | 0.032
CC1(C)CCC(CN2CCN(c3ccc(C(=O)NS(=O)(=O)c4ccc(NCC5CCOCC5)c([N+](=O)[O-])c4)c(Oc4cnc5[nH]ccc5c4)c3)CC2)=C(c2ccc(Cl)cc2)C1 [Venetoclax] + CCN(CCO)CCCOc1ccc2c(Nc3cc(CC(=O)Nc4cccc(F)c4)[nH]n3)ncnc2c1 [AZD2811] (first compound max 1 µM, 7x7, partner max 1 µM) | -0.0755 | 0.0632 | 0.0074 | 0.0784 | -0.0358 | -0.0475 | -0.0017 | 0.0245 | -0.0278 | 0.132 | -0.0165 | -0.034 | 0.0697 | -0.0195 | -0.0546 | 0.0131 | -0.0222 | 0.0814 | -0.055 | -0.0043
CC1(C)CCC(CN2CCN(c3ccc(C(=O)NS(=O)(=O)c4ccc(NCC5CCOCC5)c([N+](=O)[O-])c4)c(Oc4cnc5[nH]ccc5c4)c3)CC2)=C(c2ccc(Cl)cc2)C1 [Venetoclax] + CN(C)CCCOc1ccc(-c2ccc3ncc4c(c3c2)n(C2CCOCC2)c(=O)n4C)cn1 [AZD0156] (first compound max 1 µM, 7x7, partner max 1 µM) | -0.1 | 0.031 | 0.0229 | 0.0082 | -0.0356 | 0.012 | 0.013 | -0.0359 | 0.0594 | -0.0214 | -0.0133 | -0.0485 | -0.0963 | -0.0618 | -0.041 | 0.0043 | 0.013 | -0.0027 | -0.016 | -0.0333
CC1(C)CCC(CN2CCN(c3ccc(C(=O)NS(=O)(=O)c4ccc(NCC5CCOCC5)c([N+](=O)[O-])c4)c(Oc4cnc5[nH]ccc5c4)c3)CC2)=C(c2ccc(Cl)cc2)C1 [Venetoclax] + COc1cc(Nc2ncc3c(n2)-c2ccc(Cl)cc2C(c2c(F)cccc2OC)=NC3)ccc1C(=O)O [Alisertib] (first compound max 1 µM, 7x7, partner max 10 µM) | -0.0701 | 0.0181 | 0.0786 | 0.238 | -0.0153 | 0.0079 | 0.0069 | -0.0084 | 0.0646 | 0.346 | 0.045 | 0.0303 | 0.0087 | 0.17 | -0.0536 | 0.0366 | -0.0527 | 0.0892 | -0.0513 | -0.0688
CC1(C)CCC(CN2CCN(c3ccc(C(=O)NS(=O)(=O)c4ccc(NCC5CCOCC5)c([N+](=O)[O-])c4)c(Oc4cnc5[nH]ccc5c4)c3)CC2)=C(c2ccc(Cl)cc2)C1 [Venetoclax] + C[C@@H]1COCCN1C2=NC(=NC(=C2)C3(CC3)[S@](=N)(=O)C)C4=C5C=CNC5=NC=C4 [AZD6738] (first compound max 1 µM, 7x7, partner max 10 µM) | -0.0301 | 0.0053 | -0.0388 | 0.0493 | 0.005 | -0.0022 | -0.0119 | -0.0447 | -0.0462 | 0.0582 | 0.0068 | -0.0356 | -0.0143 | 0.0391 | 0.0022 | -0.021 | -0.0036 | -0.0361 | -0.0178 | -0.0138
CC1(C)CCC(CN2CCN(c3ccc(C(=O)NS(=O)(=O)c4ccc(NCC5CCOCC5)c([N+](=O)[O-])c4)c(Oc4cnc5[nH]ccc5c4)c3)CC2)=C(c2ccc(Cl)cc2)C1 [Venetoclax] + C[C@@H](Nc1cc(F)cc(F)c1)c1cc(C(=O)N(C)C)cc2c(=O)cc(N3CCOCC3)oc12 [AZD8186] (first compound max 1 µM, 7x7, partner max 3 µM) | -0.0817 | -0.0008 | 0.0404 | -0.0397 | -0.261 | -0.0286 | -0.0138 | -0.0239 | 0.0146 | -0.026 | -0.0215 | -0.0489 | 0.0937 | 0.0529 | -0.0441 | -0.0169 | -0.0632 | -0.0189 | -0.0274 | -0.0862
CC1(C)CCC(CN2CCN(c3ccc(C(=O)NS(=O)(=O)c4ccc(NCC5CCOCC5)c([N+](=O)[O-])c4)c(Oc4cnc5[nH]ccc5c4)c3)CC2)=C(c2ccc(Cl)cc2)C1 [Venetoclax] + Cc1cc2ncnn2cc1Nc1ncc2c(n1)n(C1CCOCC1)c(=O)n2C [AZD7648] (first compound max 1 µM, 7x7, partner max 10 µM) | -0.0803 | -0.0008 | 0.0128 | -0.0264 | -0.0205 | 0.0185 | -0.0074 | -0.0003 | 0.0678 | -0.041 | -0.0006 | -0.028 | 0.0323 | -0.0238 | -0.0639 | -0.0163 | -0.0564 | -0.0025 | -0.0277 | -0.0627
